Data reported in patent US10626081B2, “Farnesoid X receptor agonists and uses thereof” (Metacrine, Inc., priority 2015, dated 2020).

Experiments:
[1] = biological target: T1, FXR (Homo sapiens, UniProt Q96RI1); assay: In Vitro FXR Assay (PGL3): luciferase reporter in transfected CV-1 cells; format: cell-based; conditions: CV-1 cells transfected with hFXR, hRXR, PGL3-ECRE*6-luc; 18 h incubation; luminescence
T1 construct: expressed in transfected cells; host or cells: CV-1 cells
T1 sequence (Q96RI1 1-486): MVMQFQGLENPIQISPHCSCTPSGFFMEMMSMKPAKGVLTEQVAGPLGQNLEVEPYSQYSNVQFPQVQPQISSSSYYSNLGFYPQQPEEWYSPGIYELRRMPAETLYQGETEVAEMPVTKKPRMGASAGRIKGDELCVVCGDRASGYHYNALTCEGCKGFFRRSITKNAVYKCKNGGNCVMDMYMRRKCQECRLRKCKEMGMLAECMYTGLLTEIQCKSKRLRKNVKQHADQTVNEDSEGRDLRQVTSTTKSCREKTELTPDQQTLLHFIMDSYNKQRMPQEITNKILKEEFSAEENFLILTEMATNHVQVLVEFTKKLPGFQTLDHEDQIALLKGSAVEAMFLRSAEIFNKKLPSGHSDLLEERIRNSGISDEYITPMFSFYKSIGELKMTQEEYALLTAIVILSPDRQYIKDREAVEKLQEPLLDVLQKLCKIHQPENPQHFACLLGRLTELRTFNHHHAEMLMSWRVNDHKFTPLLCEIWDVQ
T1 sequence (P19793 1-462 partner): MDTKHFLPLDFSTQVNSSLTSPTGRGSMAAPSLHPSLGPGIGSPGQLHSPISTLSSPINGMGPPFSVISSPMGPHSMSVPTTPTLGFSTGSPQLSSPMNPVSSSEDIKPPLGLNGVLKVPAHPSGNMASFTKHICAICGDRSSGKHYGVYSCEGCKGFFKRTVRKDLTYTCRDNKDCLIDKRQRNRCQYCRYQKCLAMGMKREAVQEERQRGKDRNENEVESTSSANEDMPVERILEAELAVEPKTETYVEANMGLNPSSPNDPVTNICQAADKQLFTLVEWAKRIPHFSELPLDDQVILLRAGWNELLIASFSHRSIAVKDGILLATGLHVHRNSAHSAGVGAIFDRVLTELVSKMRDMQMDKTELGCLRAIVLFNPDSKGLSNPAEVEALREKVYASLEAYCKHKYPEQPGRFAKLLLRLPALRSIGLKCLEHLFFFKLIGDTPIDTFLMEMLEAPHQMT
Description: Example B-1: In Vitro FXR Assay (PGL3)
CV-1 cells were seeded at a density of 2,000,000 cells in a T175 flask with DMEM+10% charcoal double-stripped FBS and incubated at 37° C. in a 5% CO2 for 18 h (O/N).
After 18 h of incubation, the medium in the T175 flask was changed with fresh DMEM+10% charcoal super-stripped serum.
To prepare the transfection reaction mixture, the transfection reagent (X-tremeGENE HP from Roche, Cat #06 366 236 001) was added in to a 1.5 mL microcentrifuge tube labelled “A” at a ratio of 1:3 (DNA in transfection reagent in μL). OptiMEM medium (Life Technologies, Cat #31985-062) was added accordingly to provide a total volume of 1 mL. The transfection reaction mixture was then briefly vortexed and incubated at room temperature for 5 minutes.
In a separate 1.5 mL microcentrifuge tube labelled “B”, 100 μL OptiMEM and plasmids XPD90Gal pCMXhFXRfl, pCMXhRXRfl+PGL3-ECRE*6-luc+CMX-YFP in the ratio 2 μg:2 μg:18 μg:3 μg were added. This microcentrifuge tube “B” was then briefly vortexed and incubated at room temperature for 5 minutes.
The total volume in tube labelled “A” was then transferred in to tube labelled “B.” The mixture was then briefly vortexed and the transfection:DNA complex was then incubated for about 15-20 minutes at room temperature.
Following incubation, the transfection reagent/DNA mixture complex was then added to cells in the T175 flask and the cells were incubated at […] (O/N) at 37° C. in 5% CO2.
In a 96 well plate, a half logarithmic serial dilution was prepared. OptiMEM was used as the diluent. Using any of one of the compounds described herein, a compound stock solution of 10 mM was prepared. An initial 1:100 dilution was made into the first well for a final concentration of 100 μM. The final concentrations in the 96-well plate was prepared by using a multichannel pipette to transfer 5 μL of the diluted compound to 384-well plate in quadruplicate.
Cells in T175 flask were trypsinized and cells were resuspended in 40 mL phenol red free DMEM+10% charcoal super-stripped FBS. Typically, one T175 flask was sufficient to seed two 384 well plates. CV-1 cells were seeded at 45 μL cell suspension/well using a multi-channel pipet or a 384 multidrop dispenser. The cells were then incubated for 18 hrs, overnight.
After removing the plates from the incubator, the medium was flicked out of plate and 384 well plate was turned upside down onto paper towel. The remaining medium was gently tapped out. 15 μL lysis buffer was then added to each well using a multichannel pipet or a 384 well multi-drop dispenser. After incubation for 10 minutes at room temperature on shaker, 30 μL Luciferase buffer was added to each well. Luminescence counts were taken immediately using the Perkin Elmer Envision.
The ability of the compounds disclosed herein to […] FXR activity was quantified and the respective EC50 value was determined. Fex=fexaramine.

[2] = biological target: T1, FXR; assay: In Vitro FXR Assay (TK): TK-ECRE-luc reporter in transfected CV-1 cells; format: cell-based; conditions: CV-1 cells transfected with hFXR, hRXR, 18 h incubation, luminescence
In short: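 CV-1 cells in charcoal-stripped FBS medium were transiently cotransfected with hFXR, hRXR, TK-ECRE-luc and pCMX-YFP plasmids. After 18 h, compounds serially diluted in DMSO were added for 18 h at 37 °C, 5% CO2, then cells were lysed and luminescence read.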

Structure (SMILES) | Cmpd/Fex (ratio of the EC50 for the test compound relative to the EC50 of the Fexaramine control) [1] | EC50 [2]
COC(=O)/C=C/c1cccc(N(Cc2ccc(-c3ccccc3O)cc2)C(=O)C2CCCCC2)c1 [compound 56, (E)-Methyl 3-(3-(N-((2′-hydroxy-[1,1′-biphenyl]-4-yl)methyl)cyclohexanecarboxamido)phenyl) acrylate] | ++ (‘++’ means Cmpd/Fex > 10 & < 100) | 1 to 10 µM
COC(=O)/C=C/c1cccc(N(Cc2ccc(-c3cccc(C(F)(F)F)c3)cc2)C(=O)C2CCCCC2)c1 [compound 35, (E)-Methyl 3-(3-(N-((3′-(trifluoromethyl)-[1,1′-biphenyl]-4-yl)methyl)cyclohexanecarboxamido)phenyl)acrylate] | ++ (‘++’ means Cmpd/Fex > 10 & < 100) | 1 to 10 µM
COC(=O)CCc1ccc(C)c(N(Cc2ccc(-c3ccc(N(C)C)cc3)cc2)C(=O)C2CCCCC2)c1 [compound 93, Methyl 3-(3-(N-((4′-(dimethylamino)-[1,1′-biphenyl]-4-yl)methyl)cyclohexanecarboxamido)-4-methylphenyl)propanoate] | ++ (‘++’ means Cmpd/Fex > 10 & < 100) | > 10 µM
COC(=O)/C=C/c1cccc(N(Cc2ccccc2-c2ccccc2)C(=O)C2CCCCC2)c1 [compound 81, (E)-Methyl 3-(3-(N-([1,1′-biphenyl]-2-ylmethyl)cyclohexanecarboxamido)phenyl) acrylate] | + (‘+’ means Cmpd/Fex > 100) | > 10 µM
COC(=O)/C=C(\C)c1cccc(N(Cc2ccc(-c3ccc(N(C)C)cc3)cc2)C(=O)C2CCCCC2)c1 [compound 45, (E)-Methyl 3-(3-(N-((4′-(dimethylamino)-[1,1′-biphenyl]-4-yl)methyl)cyclohexanecarboxamido)phenyl)but-2-enoate] | +++ (‘+++’ means Cmpd/Fex < 10) | 1 to 10 µM
COC(=O)/C=C/c1cccc(N(Cc2ccc(-c3ccc(N(C)C)cc3)cc2)C(=O)C2CCOCC2)c1 [compound 5, (E)-Methyl 3-(3-(N-((4′-(dimethylamino)-[1,1′-biphenyl]-4-yl)methyl)tetrahydro-2H-pyran-4-carboxamido)phenyl)acrylate] | +++ (‘+++’ means Cmpd/Fex < 10) | ≤ 1 µM
COC(=O)/C=C/c1cccc(N(Cc2ccc(-c3ccc(N(C)C)cc3)cc2)C(=O)N2CCCCC2)c1 [compound 16] | ++ (‘++’ means Cmpd/Fex > 10 & < 100) | 1 to 10 µM
CN(C)c1ccc(-c2ccc(CN(C(=O)C3CCCCC3)c3cccc(/C=C/C(=O)O)c3)cc2)cc1 [compound 88, (E)-3-(3-(N-((4′-(dimethylamino)-[1,1′-biphenyl]-4-yl)methyl)cyclohexanecarboxamido)phenyl)acrylic acid] | + (‘+’ means Cmpd/Fex > 100) | > 10 µM
COC(=O)/C=C/c1cccc(N(Cc2ccc(N3CCOCC3)cc2)C(=O)C2CCCCC2)c1 [compound 77, (E)-Methyl 3-(3-(N-(4-morpholinobenzyl)cyclohexane-carboxamido)phenyl)acrylate] | + (‘+’ means Cmpd/Fex > 100) | 1 to 10 µM
COC(=O)/C=C/c1cccc(N(Cc2ccc(-c3ccc(OC)cc3F)cc2)C(=O)C2CCCCC2)c1 [compound 33, (E)-Methyl 3-(3-(N-((2′-fluoro-4′-methoxy-[1,1′-biphenyl]-4-yl)methyl)cyclohexanecarboxamido)phenyl)acrylate] | ++ (‘++’ means Cmpd/Fex > 10 & < 100) | 1 to 10 µM
COC(=O)/C=C/c1cccc(N(Cc2ccc(-c3cccnc3)cc2)C(=O)C2CCCCC2)c1 [compound 29, (E)-Methyl 3-(3-(N-(4-(pyridin-3-yl)benzyl)cyclohexanecarboxamido)phenyl) acrylate] | ++ (‘++’ means Cmpd/Fex > 10 & < 100) | 1 to 10 µM
COC(=O)C(C)Cc1cccc(N(Cc2ccc(-c3ccc(N(C)C)cc3)cc2)C(=O)C2CCCCC2)c1 (stereo not shown) [compound 95, Methyl 3-(3-(N-((4′-(dimethylamino)-[1,1′-biphenyl]-4-yl)methyl)cyclohexanecarboxamido)phenyl)-2-methylpropanoate] | ++ (‘++’ means Cmpd/Fex > 10 & < 100) | 1 to 10 µM

Second part, the compound after the results:

Cmpd/Fex (ratio of the EC50 for the test compound relative to the EC50 of the Fexaramine control) [1] | EC50 [2] | Structure (SMILES)
++ (‘++’ means Cmpd/Fex > 10 & < 100) | 1 to 10 µM | COC(=O)/C=C/c1cccc(N(Cc2ccc(-c3ccc(OC(C)C)cc3)cc2)C(=O)C2CCCCC2)c1 [compound 32, (E)-Methyl 3-(3-(N-((4′-isopropoxy-[1,1′-biphenyl]-4-yl)methyl)cyclohexanecarboxamido)phenyl)acrylate]
+++ (‘+++’ means Cmpd/Fex < 10) | ≤ 1 µM | COC(=O)/C=C/c1cccc(N(Cc2ccc(-c3ccc(N(C)C)c(C)c3)cc2)C(=O)C2CCCCC2)c1 [compound 20, (E)-Methyl 3-(3-(N-((4′-(dimethylamino)-3′-methyl-[1,1′-biphenyl]-4-yl)methyl)cyclohexanecarboxamido)phenyl)acrylate]
++ (‘++’ means Cmpd/Fex > 10 & < 100) | 1 to 10 µM | COC(=O)/C=C/c1cccc(N(Cc2ccc(-c3cccc(N(C)C)c3)cc2)C(=O)C2CCCCC2)c1 [compound 37, (E)-Methyl 3-(3-(N-((3′-(dimethylamino)-[1,1′-biphenyl]-4-yl)methyl)cyclohexanecarboxamido)phenyl) acrylate]
+++ (‘+++’ means Cmpd/Fex < 10) | ≤ 1 µM | COC(=O)/C=C/c1cccc(N(Cc2ccc(-c3ccc(OC)c(C#N)c3)cc2)C(=O)C2CCCCC2)c1 [compound 64, (E)-Methyl 3-(3-(N-((3′-cyano-4′-methoxy-[1,1′-biphenyl]-4-yl)methyl)cyclohexanecarboxamido)phenyl) acrylate]
+ (‘+’ means Cmpd/Fex > 100) | 1 to 10 µM | COC(=O)/C=C/c1cccc(N(Cc2ccc(-c3ccc4[nH]ncc4c3)cc2)C(=O)C2CCCCC2)c1 [compound 49, (E)-Methyl 3-(3-(N-(4-(1H-indazol-5-yl)benzyl)cyclohexanecarboxamido)phenyl) acrylate]
